According to publication PMC11537802, “The Neuroprotection of 1,2,4‐Triazole Derivative by Inhibiting Inflammation and Protecting BBB Integrity in Acute Ischemic Stroke” (CNS Neuroscience & Therapeutics, 2024):

Experiments:
MCAO rats = assay: neurological score (Zea-Longa) in MCAO rats; assay type: in vivo, Sprague–Dawley rats; conditions: 48 h after surgery
Excerpt: (§1) C57BL/6 mice were randomly assigned to treatment groups by body weight. Operator blind to treatment status of animals. After the mice were anesthetized, a midline cervical incision was made. The left common carotid artery and external carotid artery were isolated and ligated. Arterial clamps were placed at the preparation line and distal end of the internal carotid artery. An incision was made at the bifurcation of the common carotid artery. 4–0 nylon line was inserted to a depth of 17–20 mm. The nylon line entered the internal carotid artery; then, it entered the skull to the anterior cerebral artery and blocked all blood flow sources in the middle cerebral artery. After keeping ischemic for 1 h, the animals were re‐anesthetized and then pulled out the nylon line for about 1 cm to achieve reperfusion for up to 48 h. The wound was disinfected with iodophor, and the skin was sutured. Put them on the electric blanket to maintain the body temperature after the completion of surgery; then, they were returned to cages upon recovery. For the sham group, except that no nylon line is inserted, other steps are the same as above. Sham group and model group were given 20% polyoxyethylene castor oil. Subsequently, the animals were sacrificed, and the serum and brains were collected for a series of subsequent analyses and studies.
Rats were randomly divided into five groups: Sham group (n = 24), rats received sham operation; MCAO model group (n = 30); SYS18 low‐dose group (7.5 mg/kg, n = 30); SYS18 high‐dose group (15 mg/kg, n = 30); and Positive control group rats were intraperitoneally injected with edaravone (15 mg/kg, n = 30). […]
According to Zea‐Longa 4‐point scoring criteria, the animals were scored for neurological function at 48 h after surgery. […] And the degree of each animal model was scored as follows: 0 point, no symptoms of nerve injury; 1 point, inability to fully extend the forepaw; 2 points, circling laterally; 3 points, tip to the opposite side; 4 points, inability to walk spontaneously and loss of consciousness. […]

claudin‐5 = assay: immunofluorescence of claudin-5 in brain of MCAO rats; assay type: in vivo, Sprague–Dawley rats; conditions: high-dose SYS18 (15 mg/kg)
Procedure: (§2) Rats were randomly divided into five groups: Sham group (n = 24), rats received sham operation; MCAO model group (n = 30); SYS18 low‐dose group (7.5 mg/kg, n = 30); SYS18 high‐dose group (15 mg/kg, n = 30); and Positive control group rats were intraperitoneally injected with edaravone (15 mg/kg, n = 30). The tested compound was dissolved in 20% polyoxyethylene castor oil and was administered 0.5 h before operation and 6, 12, 24, and 36 h after reperfusion. The measurements were carried out 48 h after the operation. Ten animals in each group were used to measure brain water content, and 10 animals in each group were used to detect Evans blue content in brain tissue. Ten animals in each group were used for determination of biochemical indicators and pathological observations and WB experiments.
(§3) Immunofluorescence testing selects the same area as HE staining to observe and analyze the fluorescence level in the field of view. After deparaffinization of the paraffin sections to water, the tissue sections were subjected to antigen retrieval in a microwave oven in a retrieval box filled with citric acid antigen retrieval buffer (pH 6.0), and the sections were incubated overnight at 4°C with rabbit monoclonal anti‐MMP‐9 (1:100), rabbit polyclonal anti‐claudin‐5 (1:200). […]

[1] = blood–brain distribution and PK of SYS18 in rats after intraperitoneal injection; conditions: for Kp: brain/plasma
Procedure: The blood samples were anticoagulated with EDTA and stored at 4°C, then centrifuged at 4°C at 4000 r/min for 10 min. The plasma concentrations were detected simultaneously (plasma stored at −80°C refrigerator). The whole brain was stored at −80°C for later detection and then uniformly prepared into brain tissue homogenate to detect drug concentration. Use Excel to analyze the drug concentration—time data pharmacokinetic parameters through atrioventricular method.

TNF‐α = assay: serum TNF-α in MCAO rats (ELISA); assay type: in vivo, Sprague–Dawley rats; conditions: 15 mg/kg, 48 h, p < 0.05
Procedure: as §2
(§4) Blood sample was collected at 48 h after MCAO. After centrifugation at 4°C × 12,000 g for 10 min, the clear supernatant was stored at −80°C. The components of SOD, MDA, TNF‐α, and IL‐1β in the blood samples were measured according to the instructions of the assay kits.

MMP‐9 = assay: immunofluorescence of MMP-9 in brain of MCAO rats; assay type: in vivo, Sprague–Dawley rats; conditions: high-dose SYS18 (15 mg/kg)
Procedure: as §2, §3

MDA = assay: serum MDA in MCAO rats (kit); assay type: in vivo, Sprague–Dawley rats; conditions: 15 mg/kg (high dose), 48 h, p < 0.05
Procedure: as §2, §4

MCAO mice = assay: brain edema volume by T2-weighted MRI in MCAO mice; assay type: in vivo, C57BL/6 mice; conditions: SYS18 30 mg/kg twice a day, about 48 h after MCAO, model 36.64% ± 2.69%, p < 0.0001
Excerpt: as §1
Serial brain images were acquired approximately 48 h after MCAO. […]

COc1ccc(-c2nc(-c3ccccc3O)n(-c3ccc(S(N)(=O)=O)cc3)n2)c(O)c1 [SYS18, 4‐(3‐(2‐hydroxy‐4‐methoxyphenyl)‐5‐(2‐hydroxyphenyl)‐1H‐1,2,4‐triazol‐1‐yl) benzenesulfonamide]
neurological score (MCAO rats; 7.5 mg/kg (low dose), model 2.42 ± 0.84, p > 0.05): 1.95 ± 0.74
neurological score (MCAO rats; 15 mg/kg (SYS18 high dose; edaravone i.p.), model 2.42 ± 0.84, p < 0.01): 1.52 ± 0.68
fluorescent intensity of claudin-5 vs model group (claudin‐5): fluorescent intensity increased
Cmax ([1]; SD, rat, brain, ip, 15 mg/kg): 464 ng/g
MRT ([1]; SD, rat, brain, ip, 15 mg/kg): 7.15 h
k el ([1]; SD, rat, brain, ip, 15 mg/kg): 3.75e-05 s⁻¹
Kp ([1]; SD, rat, ip, 15 mg/kg, B/P (ratio of total drug concentration in brain to plasma), rats, 15 mg/kg i.p., at 1–2 h): > 0.2
Kp ([1]; SD, rat, ip, 15 mg/kg, B/P (ratio of total drug concentration in brain to plasma), rats, 15 mg/kg i.p., at 4–6 h): > 0.4
Kp ([1]; SD, rat, ip, 15 mg/kg, cerebral‐blood ratio of area under the curve (AUC0‐t), rats, 15 mg/kg i.p.): > 0.4
Tmax ([1]; SD, rat, in vivo, ip, 15 mg/kg): 2 h
half-life ([1]; SD, rat, in vivo, ip, 15 mg/kg): 5.12 h
CL/F ([1]; SD, rat, plasma, ip, 15 mg/kg): 16.7 mL/min/kg
Cmax ([1]; SD, rat, plasma, ip, 15 mg/kg): 1850 ng/mL
MRT ([1]; SD, rat, plasma, ip, 15 mg/kg): 3.87 h
Tmax ([1]; SD, rat, plasma, ip, 15 mg/kg): 1 h
Vd/F ([1]; SD, rat, plasma, ip, 15 mg/kg): 3 L/kg
half-life ([1]; SD, rat, plasma, ip, 15 mg/kg): 3.17 h
k el ([1]; SD, rat, plasma, ip, 15 mg/kg): 6.06e-05 s⁻¹
AUC ([1]; SD, rat, plasma, ip, 15 mg/kg, AUC0‐inf_obs, blood, rats, 15 mg/kg i.p.): 8520 ng·h/mL
AUC ([1]; SD, rat, plasma, ip, 15 mg/kg, AUC0‐t, blood, rats, 15 mg/kg i.p.): 8440 ng·h/mL
AUC ([1]; SD, rat, plasma, ip, 15 mg/kg, area under the curve (AUC0‐t), blood, rats): 8440 ng·h/mL
AUMC0‐inf_obs ([1]; blood, rats, 15 mg/kg i.p.): 32940.745 ng/mg × h^2
Tlag ([1]; blood, rats, 15 mg/kg i.p.): 0 h
AUC0‐inf_obs ([1]; brain, rats, 15 mg/kg i.p.): 3700.110 ng·h/mg
AUC0‐t ([1]; brain, rats, 15 mg/kg i.p.): 3504.387 ng·h/mg
AUMC0‐inf_obs ([1]; brain, rats, 15 mg/kg i.p.): 26458.752 ng/mg × h^2
Tlag ([1]; brain, rats, 15 mg/kg i.p.): 0 h
area under the curve (AUC0‐t) ([1]; brain, rats, i.p.): 3500 ng·h/mg
TNF-α in serum vs model group (TNF‐α): significantly decreased
fluorescent intensity of MMP-9 vs model group (MMP‐9): decreased
MDA levels in serum vs model group (MDA): reduced MDA levels in serum significantly
brain edema volume (T2-MRI) (MCAO mice): 11.01% ± 5.32%
